The values below come from patent US8906908B2, “Hydroxybupropion analogues for treating drug dependence” (priority 2010, dated 2014).

The structures appear in SMILES notation. Like-named read-outs stand apart in the source and are kept apart here.

A word on the IC50: it is the concentration that inhibits the measured activity by half.

One assay has as its target T1, NE transporters [h(NET)] (Homo sapiens, UniProt P23975).
T1 construct: expressed in transfected cells; host or cells: HEK-293
As to the kind of experiment: Inhibition of [3H]norepinephrine uptake into HEK293 cells stably expressing hNET. The following applies: for IC50: HEK293-hNET, mean ± standard error of three independent experiments, read-out: monoamine uptake inhibition IC50 [3H]NE; for selectivity for inhibition of NE over DA uptake: ratio of uptake IC50 values. Format: cell-based. An excerpt:
(§1) Cell Lines and Culture: Human embryonic kidney (HEK-293) cells stably expressing human DAT, NET or SERT were maintained as previously described in Eshleman, A. J.; Carmolli, M.; Cumbay, M.; Martens, C. R.; Neve, K. A.; Janowsky, A., J. Pharmacol. Exp. Ther. 1999, 289, (2), 877-885. Use was made of several human cell lines that naturally or heterologously express specific, functional, human nAChR subtypes. Cells of the TE671/RD line naturally expresses muscle-type nAChR (a1β1γδ- or α1*-nAChR), and SH-SY5Y neuroblastoma cells naturally expresses autonomic α3β4*-nAChRs (containing α3, β4, probably α5, and sometimes β2 subunits). Different clones of SH-EP1 epithelial cell lines have been engineered to heterologously express either α4β2-nAChR, which are thought to be the most abundant, high affinity nicotine-binding nAChR in mammalian brain, or α4β4-nAChR, another possible brain nAChR subtype (SH-EP1-hα4β2 or α4β4 cells, respectively). These cells were maintained as low passage number (1-26 from our frozen stocks) cultures to ensure stable expression of native or heterologously-expressed nAChR as previously described (see Lukas, R. J.; Fryer, J. D.; Eaton, J. B.; L., G. C., Some methods for studies of nicotinic acetylcholine receptor pharmacology, in Nicotinic receptors and the Nervous System, Levine, E. D., Ed. CRC Press: Boca Raton, 2002; pp 3-27, incorporated herein by reference in its entirety). Cells were passaged once weekly by splitting just-confluent cultures 1/300 (TE671/RD), 1/5 (SH-SY5Y), or 1/20 (transfected SH-EP1) in serum-supplemented medium to maintain log-phase growth.
See, for example, Damaj, M. I.; Carroll, F. I.; Eaton, J. B.; Navarro, H. A.; Blough, B. E.; Mirza, S.; Lukas, R. J.; Martin, B. R., Mol. Pharmacol. 2004, 66, (3), 675-682 and Eshleman, A. J.; Carmolli, M.; Cumbay, M.; Martens, C. R.; Neve, K. A.; Janowsky, A., J. Pharmacol. Exp. Ther. 1999, 289, (2), 877-885, both incorporated by reference herein in their entireties.

Assay [1] deals with T2, muscle-type nAChR (α1β1γδ- or α1*-nAChR) (Homo sapiens, UniProt P02708+P07510+P11230+Q07001).
T2 construct: Cells of the TE671/RD line naturally expresses muscle-type nAChR; endogenous in cells; host or cells: TE671/RD cells
T2 sequence (P02708 21-457): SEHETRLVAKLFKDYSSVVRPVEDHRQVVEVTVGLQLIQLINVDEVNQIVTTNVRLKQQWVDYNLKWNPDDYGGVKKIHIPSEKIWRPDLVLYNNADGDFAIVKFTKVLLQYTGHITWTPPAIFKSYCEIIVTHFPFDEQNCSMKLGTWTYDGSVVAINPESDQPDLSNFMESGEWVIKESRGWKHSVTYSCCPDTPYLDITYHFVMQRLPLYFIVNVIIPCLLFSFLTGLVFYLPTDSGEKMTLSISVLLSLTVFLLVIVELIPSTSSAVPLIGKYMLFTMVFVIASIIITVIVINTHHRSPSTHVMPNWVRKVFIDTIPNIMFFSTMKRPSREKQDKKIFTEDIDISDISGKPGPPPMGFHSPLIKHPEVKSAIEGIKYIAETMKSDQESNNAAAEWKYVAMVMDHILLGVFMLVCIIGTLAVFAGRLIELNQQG
T2 sequence (P11230 24-501): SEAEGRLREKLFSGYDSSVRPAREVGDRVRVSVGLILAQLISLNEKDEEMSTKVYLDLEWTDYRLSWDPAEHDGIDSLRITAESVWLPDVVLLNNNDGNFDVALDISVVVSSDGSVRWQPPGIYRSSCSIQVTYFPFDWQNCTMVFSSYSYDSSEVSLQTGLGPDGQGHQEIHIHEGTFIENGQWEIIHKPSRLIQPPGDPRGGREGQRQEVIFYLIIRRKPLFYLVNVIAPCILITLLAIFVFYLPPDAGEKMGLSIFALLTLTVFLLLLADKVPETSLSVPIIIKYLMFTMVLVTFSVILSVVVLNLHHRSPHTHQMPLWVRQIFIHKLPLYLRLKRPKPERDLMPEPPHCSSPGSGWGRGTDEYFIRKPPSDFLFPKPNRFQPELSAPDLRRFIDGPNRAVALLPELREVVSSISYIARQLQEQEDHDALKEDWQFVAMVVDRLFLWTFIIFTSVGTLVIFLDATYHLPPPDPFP
T2 sequence (P07510 23-517): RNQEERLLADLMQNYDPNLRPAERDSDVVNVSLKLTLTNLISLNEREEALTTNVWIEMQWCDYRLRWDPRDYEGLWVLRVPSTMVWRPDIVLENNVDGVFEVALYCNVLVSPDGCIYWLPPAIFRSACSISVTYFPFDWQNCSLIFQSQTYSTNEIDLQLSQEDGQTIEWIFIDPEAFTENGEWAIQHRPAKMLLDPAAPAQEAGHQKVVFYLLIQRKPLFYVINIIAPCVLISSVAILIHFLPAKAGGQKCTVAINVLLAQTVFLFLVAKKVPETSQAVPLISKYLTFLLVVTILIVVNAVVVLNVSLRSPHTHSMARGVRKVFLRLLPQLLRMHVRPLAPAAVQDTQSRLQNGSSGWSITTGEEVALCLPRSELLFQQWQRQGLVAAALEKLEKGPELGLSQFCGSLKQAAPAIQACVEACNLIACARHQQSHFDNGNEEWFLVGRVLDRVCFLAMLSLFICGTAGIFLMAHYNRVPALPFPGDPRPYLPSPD
T2 sequence (Q07001 22-517): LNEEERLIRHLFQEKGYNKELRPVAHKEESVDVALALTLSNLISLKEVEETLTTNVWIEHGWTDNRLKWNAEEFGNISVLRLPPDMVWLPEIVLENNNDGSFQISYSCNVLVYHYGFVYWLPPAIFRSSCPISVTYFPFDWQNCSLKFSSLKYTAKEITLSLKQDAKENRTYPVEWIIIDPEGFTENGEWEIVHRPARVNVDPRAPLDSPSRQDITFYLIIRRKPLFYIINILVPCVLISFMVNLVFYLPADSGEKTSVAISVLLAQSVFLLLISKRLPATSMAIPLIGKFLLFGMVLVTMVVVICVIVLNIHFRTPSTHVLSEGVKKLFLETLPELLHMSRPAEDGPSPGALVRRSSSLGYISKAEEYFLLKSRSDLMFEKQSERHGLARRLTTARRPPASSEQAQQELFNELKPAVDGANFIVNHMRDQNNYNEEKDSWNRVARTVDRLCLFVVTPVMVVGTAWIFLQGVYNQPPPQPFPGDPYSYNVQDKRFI
Put plainly: 86Rb+ efflux nAChR functional assay, TE671/RD cells. The note with it: parentheses = S.E.M. as multiplication/division factor. Format: cell-based.
From the text: as §1
After cells had adhered (generally overnight, but no sooner than 4 h later), the medium was removed and replaced with 250 μL per well of complete medium supplemented with ˜350,000 cpm of ^86Rb^+ (PerkinElmer Life and Analytical Sciences, Boston, Mass.) and counted at 40% efficiency using Cerenkov counting (TriCarb 1900 liquid scintillation analyzer[…]; PerkinElmer Life Sciences).
After at least 4 h and typically overnight, ^86Rb^+ efflux was measured using the “flip-plate” technique. See Lukas, R. J.; Fryer, J. D.; Eaton, J. B.; L., G. C., Some methods for studies of nicotinic acetylcholine receptor pharmacology, in Nicotinic receptors and the Nervous System, Levine, E. D., Ed. CRC Press: Boca Raton, 2002; pp 3-27, incorporated herein by reference in its entirety). Briefly, after aspiration of the bulk of ^86Rb^+ loading medium from each well of the “cell plate,” each well containing cells was rinsed 3× with 2 mL of fresh ^86Rb^+ efflux buffer (130 mM NaCl, 5.4 mM KCl, 2 mM CaCl2, 5 mM glucose, 50 mM HEPES, pH 7.4) to remove extracellular ^86Rb^+. Following removal of residual rinse buffer by aspiration, the flip-plate technique was used again to simultaneously introduce 1.5 mL of fresh efflux buffer containing drugs of choice at indicated final concentrations from a 24-well “efflux/drug plate” into the wells of the cell plate. After a 5 min incubation, the solution was “flipped” back into the efflux/drug plate, and any remaining buffer in the cell plate was removed by aspiration. Cells remaining in the cell plate were lysed and suspended by addition of 1.5 mL of 0.1 M NaOH, 0.1% sodium dodecyl sulfate to each well.
Similarly, the sum of ^86Rb^+ in cell plates and efflux/drug plates also determined the efficiency of ^86Rb^+ loading (the percentage of applied ^86Rb^+ actually loaded into cells).
Specific efflux was then taken as the difference in control samples between total and non-specific ^86Rb^+ efflux. Any intrinsic agonist activity of test drugs was ascertained using samples containing test drug only at different concentrations and was normalized, after subtraction of non-specific efflux, to specific efflux in test drug-free, control samples.

Assay [2] has as its system Male Institute of Cancer Research (ICR) mice. As to the kind of experiment: Hot-plate test, blockade of nicotine-induced antinociception. The note with it: pretreatment 15 min before nicotine 2.5 mg/kg s.c., tested 5 min after nicotine; for ED50: Mus musculus, read-out: AD50 Hot-plate. Format: in vivo. An excerpt:
(§2) Animals: Male Institute of Cancer Research (ICR) mice (weighing 20-25 g) obtained from Harlan (Indianapolis, Ind.) were used throughout the study. Animals were housed in an Association for Assessment and Accreditation of Laboratory Animal Care-approved facility, were placed in groups of six, and had free access to food and water. Studies were approved by the Institutional Animal Care and Use Committee of Virginia Commonwealth University.
Hot-Plate Test: Mice were placed into a 10-cm wide glass cylinder on a hot plate (Thermojust Apparatus) maintained at 55° C. for assessment of pain responses mediated at supraspinal levels. To minimize tissue damage, a maximum exposure to the hot plate 40 s was imposed. Measures of control latencies (time until the animal jumped or licked its paws; typically 8-12 s) were done twice for stimuli applied at least 10 min apart for each mouse. Antinociceptive responses after test drug administrations were determined and calculated as the % MPE, where % MPE=[(test latency in s−control latency in s)/(40 s−control latency in s)×100]. Groups of 8 to 12 animals were used for each drug condition. […] The animals were then tested 5 min after administration of a subcutaneous dose of 2.5 mg/kg nicotine.

The test system is the same in assay [3]. As to the kind of experiment: Locomotor activity, antagonism of nicotine effect. The note with it: for AD50 Locomotion: pretreatment 15 min before nicotine […] s.c.; for ED50: Mus musculus, pretreatment 15 min before nicotine 1.5 mg/kg s.c., read-out: AD50 Locomotion. Format: in vivo.
From the text: as §2
Locomotor Activity: Mice were placed into individual Omnitech photocell activity cages (28×16.5 cm; Omnitech Electronics, Columbus, Ohio) 5 min after subcutaneous administration of either 0.9% saline or nicotine (1.5 mg/kg). Interruptions of the photocell beams (two banks of eight cells each) were then recorded for the next 10 min. Data were expressed as the number of photocell interruptions.

Setting [4] is: EC80-EC90 carbamylcholine, read-out: nAChR inhibition IC50 α1*β1.
The mark [5] stands for this setting: nAChR inhibition IC50 α1*β1, EC80-EC90 carbamylcholine.

T1 sequence (P23975 whole entry): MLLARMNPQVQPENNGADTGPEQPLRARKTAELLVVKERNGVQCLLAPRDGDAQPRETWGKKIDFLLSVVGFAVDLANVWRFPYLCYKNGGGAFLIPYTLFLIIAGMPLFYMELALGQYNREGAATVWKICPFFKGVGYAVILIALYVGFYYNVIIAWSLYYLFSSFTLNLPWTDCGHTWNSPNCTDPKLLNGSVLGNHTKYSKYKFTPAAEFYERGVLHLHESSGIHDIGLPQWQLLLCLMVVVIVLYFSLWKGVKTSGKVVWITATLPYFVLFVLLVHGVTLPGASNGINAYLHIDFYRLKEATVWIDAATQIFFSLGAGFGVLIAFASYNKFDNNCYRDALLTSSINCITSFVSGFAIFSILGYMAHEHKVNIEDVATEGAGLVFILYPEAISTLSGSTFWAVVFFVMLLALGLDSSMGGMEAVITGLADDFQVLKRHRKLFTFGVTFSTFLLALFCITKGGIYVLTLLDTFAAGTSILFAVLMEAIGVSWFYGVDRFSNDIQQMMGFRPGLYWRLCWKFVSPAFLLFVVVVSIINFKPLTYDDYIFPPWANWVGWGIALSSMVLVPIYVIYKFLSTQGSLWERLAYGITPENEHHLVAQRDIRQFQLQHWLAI

`C[C@@H]1NC(C)(C)CO[C@@]1(O)c1cccc2ccccc12` [Compound 4q, (2S,3S)-2-(Naphthalen-1-yl)-3,5,5-trimethylmorpholin-2-ol]: the IC50 on NE transporters [h(NET)] came to 0.411 ± 0.053 µM; in assay [1] (setting [4]) it was 6.6 µM. The “selectivity for inhibition of NE over DA uptake” value on NE transporters [h(NET)] was 24 fold. The “AD50 Hot-plate” value in assay [2] is on record as “IA (IA: AD50 > 15 mg/kg)”. In addition, the “AD50 Locomotion” value in assay [3] was “IA (IA: AD50 > 15 mg/kg)”.
In the case of `C[C@@H]1NC(C)(C)CO[C@@]1(O)c1ccc2ccccc2c1` [Compound 4r, (2S,3S)-2-(Naphthalen-2-yl)-3,5,5-trimethylmorpholin-2-ol], at NE transporters [h(NET)], the “selectivity for inhibition of NE uptake over α3β4*-nAChR function” value came out at 1.3 fold, the “selectivity for inhibition of NE uptake over α4β2-nAChR function” value is listed as roughly 4 fold and the IC50 worked out at 1.57 ± 0.43 µM. Moreover, the IC50 in assay [1] (setting [4]) turned out to be 11 µM. Moreover, in assay [2], the “AD50 Hot-plate” value was “IA (IA: AD50 > 15 mg/kg)”. Further, the “AD50 Locomotion” value in assay [3] is reported as “IA (IA: AD50 > 15 mg/kg)”.
As for `C[C@@H]1NC(C)(C)CO[C@@]1(O)c1ccc(-c2ccccc2)cc1` [Compound 4l, (2S,3S)-2-Biphenyl-4-yl-3,5,5-trimethylmorpholin-2-ol], the IC50 on NE transporters [h(NET)] is 10.3 µM; in assay [1] (setting [4]) it was 5.9 µM; in assay [1] (setting [5]) it was 5.9 to 19 µM. In addition, the “AD50 Hot-plate” value in assay [2] is on record as “IA (IA: AD50 > 15 mg/kg)”. In assay [3], the “AD50 Locomotion” value is “IA (IA: AD50 > 15 mg/kg)”.
As for `Cc1ccc([C@]2(O)OCC(C)(C)N[C@H]2C)cc1` [Compound 4j, (2S,3S)-3,5,5-Trimethyl-2-(4-methylphenyl)morpholin-2-ol], the IC50 on NE transporters [h(NET)] came out at 1.68 ± 0.33 µM; in assay [1] (setting [4]) it was 20 µM. Also, the “AD50 Hot-plate” value in assay [2] is on record as “IA (IA: AD50 > 15 mg/kg)”. In assay [3], the “AD50 Locomotion” value is given as “IA (IA: AD50 > 15 mg/kg)”.
Take `C[C@@H]1NC(C)(C)CO[C@@]1(O)c1cccc(Br)c1` [Compound 4d, (2S,3S)-2-(3-Bromophenyl)-3,5,5-trimethylmorpholin-2-ol]: the IC50 on NE transporters [h(NET)] was 0.92 ± 0.3 µM; in assay [1] (setting [4]), 18 µM; in assay [1] (setting [5]), 5.9 to 19 µM. Further, the “selectivity for inhibition of NE over DA uptake” value at NE transporters [h(NET)] is listed as roughly 3.6 fold. For the same compound, the figures for the ED50 in assay [2] and in assay [3] were 3.7 to 8.6 mg/kg and 2.6 mg/kg, respectively. In addition, in assay [3], the “AD50 Locomotion” value was 2.6 mg/kg.
On to `CC[C@@H]1NC(C)(C)CO[C@@]1(O)c1cccc(Cl)c1` [Compound 4s, (2S,3S)-2-(3-Chlorophenyl)-3-ethyl-5,5-dimethylmorpholin-2-ol], for which the IC50 on NE transporters [h(NET)] was 0.043 µM; in assay [1] (setting [4]) it was 14 µM. The “selectivity for inhibition of NE over DA uptake” value at NE transporters [h(NET)] stood at 5 fold. The ED50 in assay [2] was 3.7 to 8.6 mg/kg; in assay [3] it was 10.3 mg/kg.
With `C[C@@H]1NC(C)(C)CO[C@@]1(O)c1ccc(F)c(F)c1` [Compound 4m, (2S,3S)-2-(3,4-Difluorophenyl)-3,5,5-trimethylmorpholin-2-ol], the 50% inhibitory concentration (IC50) at NE transporters [h(NET)] came to 0.74 ± 0.11 µM; in assay [1] (setting [4]), 36 µM. Also, the “AD50 Hot-plate” value in assay [2] is given as “IA (IA: AD50 > 15 mg/kg)”. In assay [3], the “AD50 Locomotion” value is recorded as “IA (IA: AD50 > 15 mg/kg)”.
